Assay results from patent US6897206B2, “Combinations for the treatment of inflammatory disorders” (CombinatoRx, Inc., priority 2001, dated 2005).

Assays:
[1] = test system: TNFα secretion; experiment: TNFα ELISA; suppression of TNFα secretion from phorbol 12-myristate 13-acetate and ionomycin stimulated PBMCs/blood; conditions: Homo sapiens, PBMC; for inhibition at 0.05 µM: amoxapine 0.050 μM alone (prednisolone 0.000 μM); for inhibition at 0.199 µM: amoxapine 0.199 μM alone (prednisolone 0.000 μM); for inhibition at 0.797 µM: amoxapine 0.797 μM alone (prednisolone 0.000 μM); for inhibition at 0.004 µM: prednisolone 0.004 μM alone (amoxapine 0.000 μM); for inhibition at 0.017 µM: prednisolone 0.017 μM alone (amoxapine 0.000 μM); for inhibition at 0.069 µM: prednisolone 0.069 μM alone (amoxapine 0.000 μM); for inhibition at 0.277 µM: prednisolone 0.277 μM alone (amoxapine 0.000 μM)
Method: Stock solutions of amoxapine (16 mg/ml) (Sigma-Aldrich, St. Louis, Mo.; catalog number A129) and prednisolone (1.6 mg/ml) (Sigma-Aldrich, catalog number P6004) were made in dimethylsulfoxide (DMSO). The amoxapine master plates were made by adding 25 μl of the concentrated stock solution to columns 3, 9, and 15 (rows C through N) of a polypropylene 384-well storage plate that had been pre-filled with 75 μl of anhydrous DMSO. Using a TomTec Quadra Plus liquid handler, the 25 μl of amoxapine stock solution was serially diluted two-fold four times into the adjacent columns (columns 4-7, 10-13, 16-19). […] The prednisolone master plates were made by adding 25 μl of the concentrated prednisolone stock solution to the appropriate wells (row C, columns 3-8; row C, columns 9-14; row C, columns 15-20; row I, columns 3-8; row I, columns 9-14; row I, columns 15-20) of the appropriate prednisolone master polypropylene 384-well storage plate. These master plates had been pre-filled with 75 μl of anhydrous DMSO. Using the TomTec Quadra Plus liquid handler, the 25 μl was serially diluted two-fold four times in the adjacent rows (rows D-G, and J-M). […] Master plates were sealed and stored at −20 C until ready for use.
The final amoxapine/prednisolone combination plate was generated by transferring 1 μl from each of the amoxapine and prednisolone master plates to a dilution plate containing 100 μl of media (RPMI; Gibco BRL, #11875-085), 10% Fetal Bovine Serum (Gibco BRL, #25140-097), 2% Penicillin/Streptomycin (Gibco BRL, #15140-122)) using the TomTec Quadra Plus liquid handler. This dilution plate was then mixed and a 10 μl aliquot transferred to the final assay plate, which had been pre-filled with 40 μl/well RPMI media containing the appropriate stimulant to activate TNFα secretion (see below).
(§1) The compound dilution matrix was assayed using a TNFα ELISA method. Briefly, a 100 μl suspension of diluted human peripheral blood mononuclear cells (PBMCs) contained within each well of a polystyrene 384-well plate (NalgeNunc) was stimulated to secrete TNFα by treatment with a final concentration of 10 ng/ml phorbol 12-myristate 13-acetate (Sigma) and 750 ng/μl ionomycin (Sigma). Various concentrations of each test compound were added at the time of stimulation. After 16-18 hours of incubation at 37° C. in a humidified incubator, the plate was centrifuged and the supernatant transferred to a white opaque polystyrene 384 well plate (NalgeNunc, Maxisorb) coated with an anti-TNF antibody (PharMingen, #18631 D). After a two-hour incubation, the plate was washed (Tecan PowerWasher 384) with phosphate buffered saline (PBS) containing 0.1% Tween 20 (polyoxyethylene sorbitan monolaurate) and incubated for an additional one hour with another anti-TNF antibody that was biotin labeled (PharMingen, 18642D) and horseradish peroxidase (HRP) coupled to strepavidin (PharMingen, #13047E). After the plate was washed with 0.1% Tween 20/PBS, the HRP substrate (which contains luminol, hydrogen peroxide, and an enhancer such as para-iodophenol) was added to each well and light intensity measured using a LJL Analyst luminometer. Control wells contained a final concentration of 1 μg/ml cyclosporin A (Sigma).

[2] = test system: TNFα secretion; experiment: cells; conditions: Homo sapiens, read-out: TNFα inhibition
Method: as §1

[3] = read-out: TNFα inhibition, Table 1
[4] = read-out: TNFα inhibition, Table 2

## Clc1ccc2c(c1)C(N1CCNCC1)=Nc1ccccc1O2 [Amoxapine, 2-cloro-11(1-piperazinyl)dibenz[b,f][1,4]oxapine]
[1]; read-out: TNFα inhibition activity, follow-up secondary screen, amoxapine alone at 400 nM
  inhibition at 0.4 µM: 16%
[1]; [3]
  inhibition at 0.05 µM: 7.3%
  inhibition at 0.199 µM: 16.7%
  inhibition at 0.797 µM: 24.3%
[1]; read-out: TNFα inhibition, Table 1, amoxapine 3.188 μM alone (prednisolone 0.000 μM)
  inhibition at 3.188 µM: 50.4%
[1]; read-out: TNFα inhibition, Table 1, amoxapine 12.750 μM alone (prednisolone 0.000 μM)
  inhibition at 12.75 µM: 73%
[1]; [4]
  inhibition at 0.05 µM: -3.31%
  inhibition at 0.199 µM: 14.2%
  inhibition at 0.797 µM: 21.9%
[1]; read-out: TNFα inhibition, Table 2, amoxapine 0.100 μM alone (prednisolone 0.000 μM)
  inhibition at 0.1 µM: 3.6%
[1]; read-out: TNFα inhibition, Table 2, amoxapine 0.398 μM alone (prednisolone 0.000 μM)
  inhibition at 0.398 µM: 16.4%
[1]; read-out: TNFα inhibition, Table 2, amoxapine 1.593 μM alone (prednisolone 0.000 μM)
  inhibition at 1.593 µM: 37.1%
[1]; read-out: TNFα inhibition, Table 2, amoxapine 3.187 μM alone (prednisolone 0.000 μM)
  inhibition at 3.187 µM: 48%
[1]; read-out: TNFα inhibition, Table 2, amoxapine 6.373 μM alone (prednisolone 0.000 μM)
  inhibition at 6.373 µM: 64.4%
[1]; read-out: TNFα inhibition, Table 2, amoxapine 12.747 μM alone (prednisolone 0.000 μM)
  inhibition at 12.747 µM: 80.9%
[2]
  inhibition at 0.05 µM: 3%
  inhibition at 0.1 µM: 5.52%
  inhibition at 0.199 µM: 2.39%
  inhibition at 0.398 µM: 8.1%
  inhibition at 0.797 µM: 13.1%
  inhibition at 1.593 µM: 16.8%
  inhibition at 3.187 µM: 24.2%
  inhibition at 6.373 µM: 21.3%
  inhibition at 12.747 µM: 49.6%

## C[C@]12C=CC(=O)C=C1CC[C@@H]1[C@@H]2[C@@H](O)C[C@@]2(C)[C@H]1CC[C@]2(O)C(=O)CO [Prednisolone, 1,4-pregnadiene-11beta, 17alpha,21-triol-3,20-dione]
[1]; read-out: TNFα inhibition activity, follow-up secondary screen, prednisolone alone at 9 nM
  inhibition at 0.009 µM: 14%
[1]; [3]
  inhibition at 0.004 µM: 2.69%
  inhibition at 0.017 µM: 19.1%
  inhibition at 0.069 µM: 22.3%
  inhibition at 0.277 µM: 26.8%
[1]; read-out: TNFα inhibition, Table 1, prednisolone 1.110 μM alone (amoxapine 0.000 μM)
  inhibition at 1.11 µM: 27.6%
[1]; [4]
  inhibition at 0.004 µM: 9.62%
  inhibition at 0.017 µM: 24.7%
  inhibition at 0.069 µM: 24.6%
  inhibition at 0.277 µM: 36.9%
[1]; read-out: TNFα inhibition, Table 2, prednisolone 0.009 μM alone (amoxapine 0.000 μM)
  inhibition at 0.009 µM: 14.3%
[1]; read-out: TNFα inhibition, Table 2, prednisolone 0.035 μM alone (amoxapine 0.000 μM)
  inhibition at 0.035 µM: 24.1%
[1]; read-out: TNFα inhibition, Table 2, prednisolone 0.139 μM alone (amoxapine 0.000 μM)
  inhibition at 0.139 µM: 25.7%
[1]; read-out: TNFα inhibition, Table 2, prednisolone 1.110 μM alone (amoxapine 0.000 μM)
  inhibition at 1.11 µM: 34.6%
[1]; read-out: TNFα inhibition, follow-up secondary screen, 1110 nM prednisolone alone
  inhibition at 1.11 µM: 35%
[1]; read-out: inhibit TNFα secretion, prednisolone alone at 1.11 μM
  inhibition at 1.11 µM: 28%
[2]
  inhibition at 0.004 µM: 12.1%
  inhibition at 0.009 µM: 30.2%
  inhibition at 0.017 µM: 37.1%
  inhibition at 0.035 µM: 33.1%
  inhibition at 0.069 µM: 38.8%
  inhibition at 0.139 µM: 48.5%
  inhibition at 0.277 µM: 48.8%
  inhibition at 1.11 µM: 60.1%
